From patent publication US20040023907A1, “Infection model” (priority 2000, published 2004)
“Also recorded” adds a separate entry of the source.

What was measured:
[1] = test system: candida albicans (virulent strain Sc5314, avirulent strain Can34); experiment: Influence of antimycotics on adhesion of candida albicans to in vitro skin and intestinal test systems (co-cultivation, colony count); format: cell-based; details: for influence on growth rates of the pathogen: co-cultivation with in vitro skin and intestinal test systems in presence of antimycotic; for influence on the adhesion of the pathogen: human in vitro skin and intestinal test systems, submerse culture, antimycotic 0.1, 0.5, 1.0, 2.0 μg/μl, colony count vs samples without antimycotic
Excerpt: In an especially preferred embodiment, the present invention relates to the co-cultivation of the human-pathological microorganism candida albicans with the human in vitro skin test system or the human in vitro intestinal test system in order to investigate the first stage of the infection process, i.e. the adhesion of the pathogen to the skin or intestinal cells. The adhesion of the pathogen is investigated using the virulent candida strain Sc5314 and the avirulent candida strain Can34 that have already been studied in a mouse macrophage model (Longitudinal et al., Cell, 90 (1997), 939-949). The in vitro skin test system or the in vitro intestinal test system is in each case inoculated in submerse culture with about 10^3 pathogenic organisms and cultivated with shaking. At defined times, for example every 30 minutes (up to a maximum of 4 hours), aliquot amounts are removed and plated out into Petri dishes with appropriate nutrient media, for example YPD full medium (Difco). After an appropriate incubation time, the number of colonies in the Petri dishes is determined. The adhesion of the pathogens on the in vitro organ test systems can be determined based on the comparison between the determined colony count and the originally inoculated number of pathogens.
In a preferred embodiment, the method for investigating the adhesion of candida on the in vitro intestinal test system according to the invention and on the in vitro skin test system according to the invention is modified in such a way that the co-cultivation preparation contains an antimycotic, in particular amphothericin B or fluconazole.
In order to determine the adhesion of the pathogen on cells, 12 each inserts of the human in vitro skin test system held in submerse culture or 12 each inserts of the in vitro intestinal test system held in submerse culture were infected each with 10^3 pathogenic organisms of the virulent candida strain Sc5314 or of the avirulent candida strain Can34 (Longitudinal et al., Cell 90 (1997), […]). The inserts were then incubated with shaking at 37° C. for 30, 60, 90, 120, 150, or 180 min.
At the specified times, the supernatant was removed and plated out in Petri dishes with YPD nutrient medium. After an incubation period of 2 days, the colonies in the Petri dishes were counted. Based on the comparison between the determined colony count and originally inoculated number of pathogens, it was determined that approximately 95% of the virulent strain and 10% of the avirulent strain adhered to the in vitro skin model after 2 hours.
In order to determine the influence of antimycotics on the adhesion of candida albicans on skin and intestinal cells, 12 inserts of the in vitro skin test system held in submerse culture and 12 inserts of the in vitro intestinal test system each were infected with 10^3 pathogenic organisms of the virulent candida strain Sc5314 or the avirulent candida strain Can34. Amphotericin B was added to 5 inserts in a concentration of 0.1, 0.5, 1.0, and 2.0 μg/μl, and fluconazole was added to 5 inserts in a concentration of 0.1, 0.5, 1.0, and 2.0 μg/μl. The inserts were then incubated with shaking at 37° C. for up to 3 days.
After 16, 24, 72, 86, and 98 hours, aliquot amounts were removed and plated out in Petri dishes with YPD nutrient media. After an incubation period of 2 days, the colonies in the Petri dishes were counted.

[2] = test system: candida albicans (virulent strain Sc5314, avirulent strain Can34); experiment: Influence of antimycotics on penetration/invasion of candida albicans into in vitro skin and intestinal test systems (histology, PAS staining); format: cell-based; details: human in vitro skin and intestinal test systems, antimycotic 0.1, 0.5, 1.0, 2.0 μg/μl, histology after approximately 18 to 24 hours
Excerpt: In another particularly preferred embodiment, the present invention relates to the co-cultivation of the human-pathogenic microorganism candida albicans with the human in vitro skin test system prepared according to the invention or with the human in vitro intestinal test prepared according to the invention in order to investigate another stage of the infection process, i.e. the penetration/invasion of the pathogen into cells. For this, the organoid tissue test systems are co-cultivated using the airlift process with the previously described avirulent and virulent pathogen strains. The pathogen is preferably fixed with a cell count of 10^3/ml in 1% agar, and agar pieces with a diameter of 4 mm are placed onto the organoid tissue test systems for up to 98 hours. The penetration of the pathogen into the organoid structures was studied after 16 hours, 24 hours, 72 hours, 86 hours, and 98 hours using histological methods on thin sections, employing the PAS staining method (McManaus, Romeis, 17th ed., page 393). Using the histological sections, the invasion process of the virulent candida strain into the deeper layers of the connective-tissue-like matrix can be documented.
In another preferred embodiment, the method for investigating the penetration/invasion of candida with the in vitro intestinal test system and the in vitro skin test system was modified in such a way that the co-cultivation preparation contained amphothericin B or fluconazole.
In order to determine the penetration of the pathogen, 12 inserts of the in vitro skin system held in airlift culture and 12 inserts of the in vitro intestinal system held in airlift culture each were infected with 10^3 pathogenic organisms of the virulent candida strain Sc5314 or the avirulent candida strain Can34. The inserts then were incubated up to 3 days at 37° C.
The penetration of the pathogen into the organoid structures was investigated after about 18 to 24 hours using histological methods on thin sections, employing the PAS staining method both for the in vitro skin system as well as for the in vitro intestinal system. […]

| Structure (SMILES) | influence on growth rates of the pathogen [1] | influence on the adhesion of the pathogen [1] | invasion (penetration) of the virulent candida strain into the organoid structures [2] | influence on the adhesion of the pathogen ([1]; listed as amphothericin B) | invasion (penetration) of the virulent candida strain into the organoid structures ([2]; listed as amphothericin B) |
| --- | --- | --- | --- | --- | --- |
| OC(Cn1cncn1)(Cn1cncn1)c1ccc(F)cc1F [fluconazole] | influenced its growth rates | no influence on the adhesion of the pathogen; also recorded: adhesion of the virulent candida strain could only be prevented by adding amphotericin B and fluconazole and by an inhibition of growth | could only be prevented with a complete inhibition of growth; also recorded: apparently prevents the invasion of the virulent candida strain by inhibiting its growth |  |  |
| C[C@@H]1[C@H](O)[C@@H](C)/C=C/C=C/C=C/C=C/C=C/C=C/C=C/[C@H](O[C@@H]2O[C@H](C)[C@@H](O)[C@H](N)[C@@H]2O)C[C@@H]2O[C@](O)(C[C@@H](O)C[C@@H](O)[C@H](O)CC[C@@H](O)C[C@@H](O)CC(=O)O[C@H]1C)C[C@H](O)[C@H]2C(=O)O [amphotericin B] | influenced its growth rates | adhesion of the virulent candida strain could only be prevented by adding amphotericin B and fluconazole and by an inhibition of growth | apparently prevents the invasion of the virulent candida strain by inhibiting its growth | no influence on the adhesion of the pathogen | could only be prevented with a complete inhibition of growth |
